# System: H2228
# Assay: CCK-8 proliferation, NCI-H2228 (H2228)
# Type: cell-based
# Settings: Homo sapiens, NCI-H2228; Table B6, compounds designed based on the ALK inhibitors; H2228 cells; read-out: Inhibitory activity (IC50, nM) on tumor cell proliferation, H2228
# Procedure: (§1) The tumor cells used herein were cultured in a cell culture medium listed in table A1 at 37°C in an incubator with 5% CO2. Prior to experimentation, all cell lines used were correctly identified by STR profiling, and tested negative for mycoplasma contamination using a mycoplasma detection kit through routine screenings. Table A1. Tumor cells and cell culture medium used in the present disclosure
# (§2) IC50 values of the compounds of the present disclosure (including the compounds in Table 1, and compounds of examples) were measured using the Meilun Cell Counting Kit-8 kit from Dalian Meilun Biotech Co., Ltd. Assay details are as follows: tumor cells were seeded in a 96-well plate at a density listed in Table A2. After 24h, 100 µL of the inoculated cells were treated with 0.5µL of the compounds of the present disclosure (including the compounds in Tables 1 and 2, and compounds of examples) at 10 different successively decreasing concentrations (starting at the highest concentration of 10µM; 5-fold serial dilutions). After the cells were treated with the compounds of the present disclosure for a period of time, the cell viability detection reagent was added to the culture medium for cell viability assessment according to the instructions provided with the CCK-8 kit. […] The growth inhibition of the compounds of the present disclosure on cells was plotted by Prism Graphpad software, and the IC50 values of the compounds of the present disclosure were calculated therefrom. […] Seeding protocol and treatment time for tumor cells
row,IC50,Structure (SMILES)
1,100 to 500 nM,"Cc1cc(Nc2ncc(Cl)c(Nc3ccccc3S(=O)(=O)C(C)C)n2)c(OC(C)C)cc1C1CCN(Cc2cc(C3CCC(=O)NC3=O)cnc2F)CC1 (stereo not drawn) [GT-07598, 3-(5-((4-(4-((5-chloro-4-((2-(isopropylsulfonyl)phenyl)amino)pyrimidin-2-yl)amino)-5-isopropoxy-2-methylphenyl)piperidin-1-yl)methyl)-6-fluoropyridin-3-yl)piperidine-2,6-dione]"

# System: MCF7
# Assay: CCK-8 proliferation, MCF7 (MCF-7)
# Type: cell-based
# Settings: Homo sapiens, MCF7; CCK-8; read-out: Inhibitory activity (IC50) on tumor cell proliferation, MCF7
# Procedure: as §1, §2
row,IC50,Structure (SMILES)
1,100 to 500 nM,"CC(=O)c1c(C)c2cnc(Nc3ccc(N4CCN(Cc5cccc(N6CCC(=O)NC6=O)c5)CC4)cn3)nc2n(C2CCCC2)c1=O [GT-06577, 1-(3-((4-(6-((6-acetyl-8-cyclopentyl-5-methyl-7-oxo-7,8-dihydropyrido[2,3-d]pyrimidin-2-yl)amino)pyridin-3-yl)piperazin-1-yl)methyl)phenyl)dihydropyr imidine-2,4(1H,3H)-dione]"

# System: SR
# Assay: CCK-8 proliferation, SR
# Type: cell-based, Human
# Settings: Homo sapiens; Table B6, compounds designed based on the ALK inhibitors; SR cells; read-out: Inhibitory activity (IC50, nM) on tumor cell proliferation, SR
# Procedure: as §1, §2
row,Structure (SMILES),IC50
1,"Cc1cc(Nc2ncc(Cl)c(Nc3ccccc3S(=O)(=O)C(C)C)n2)c(OC(C)C)cc1C1CCN(Cc2cc(C3CCC(=O)NC3=O)cnc2F)CC1 (stereo not drawn) [GT-07598, 3-(5-((4-(4-((5-chloro-4-((2-(isopropylsulfonyl)phenyl)amino)pyrimidin-2-yl)amino)-5-isopropoxy-2-methylphenyl)piperidin-1-yl)methyl)-6-fluoropyridin-3-yl)piperidine-2,6-dione]",100 to 500 nM

# System: H1975
# Assay: CCK-8 proliferation, NCI-H1975 (H1975)
# Type: cell-based, Human
# Settings: Homo sapiens, NCI-H1975; CCK-8; 96 hours; read-out: Inhibitory activity (IC50) on tumor cell proliferation, H1975
# Procedure: as §1, §2
row,IC50,Structure (SMILES)
1,1 to 10 nM,"O=C1CCC(c2cnc(F)c(CN3CCN(c4ccc(-c5cc(F)c6c(c5)C(=O)N(C(C(=O)Nc5nccs5)c5ncn7c5CCC7)C6)cc4)CC3)c2)C(=O)N1 (stereo not drawn) [GT-07490, 2-(6,7-dihydro-5H-pyrrolo[1,2-c]imidazol-1-yl)-2-(6-(4-(4-((5-(2,6-dioxopiperidin-3-yl)-2-fluoropyridin-3-yl)methyl)piperazin-1-yl)phenyl)-4-fluoro-1-oxoisoindolin-2-yl)-N-(thiazol-2-yl)acetamide]"
2,1 to 10 nM,"CN(Cc1cccnc1NC1CCC(=O)NC1=O)C1CCN(c2ccc(-c3cc(F)c4c(c3)C(=O)N(C(C(=O)Nc3nccs3)c3ncn5c3CCC5)C4)cc2)CC1 (stereo not drawn) [GT-07561, 2-(6,7-dihydro-5H-pyrrolo[1,2-c]imidazol-1-yl)-2-(6-(4-(4-(((2-((2,6-dioxopiperidin-3-yl)amino)pyridin-3-yl)methyl)(methyl)amino)piperidin-1-yl)phenyl)-4-fluoro-1-oxoisoindolin-2-yl)-N-(thiazol-2-yl)acetamide]"
3,1 to 10 nM,"CN(Cc1ccc(C2CCC(=O)NC2=O)cc1)C1CCN(c2ccc(-c3cc(F)c4c(c3)C(=O)N(C(C(=O)Nc3nccs3)c3ncn5c3CCC5)C4)cc2)CC1 (stereo not drawn) [GT-05218, 2-(6,7-dihydro-5H-pyrrolo[1,2-c]imidazol-1-yl)-2-(6-(4-(4-((4-(2,6-dioxopiperidin-3-yl)benzyl)(methyl)amino)piperidin-1-yl)phenyl)-4-fluoro-1-oxoisoindolin-2-yl)-N-(thiazol-2-yl)acetamide]"
4,1 to 10 nM,"CN(Cc1cc(C2CCC(=O)NC2=O)cnc1F)C1CCN(c2ccc(-c3cc(F)c4c(c3)C(=O)N(C(C(=O)Nc3nccs3)c3ncn5c3CCC5)C4)cc2)CC1 (stereo not drawn) [GT-07560, 2-(6,7-dihydro-5H-pyrrolo[1,2-c]imidazol-1-yl)-2-(6-(4-(4-(((5-(2,6-dioxopiperidin-3-yl)-2-fluoropyridin-3-yl)methyl)(methyl)amino)piperidin-1-yl)phenyl)-4-fluoro-1-oxoisoindolin-2-yl)-N-(thiazol-2-yl)acetamide]"
5,1 to 10 nM,"CN(Cc1ccc(C2CCC(=O)NC2=O)cn1)C1CCN(c2ccc(-c3cc(F)c4c(c3)C(=O)N(C(C(=O)Nc3nccs3)c3ncn5c3CCC5)C4)cc2)CC1 (stereo not drawn) [GT-07385, 2-(6,7-dihydro-5H-pyrrolo[1,2-c]imidazol-1-yl)-2-(6-(4-(4-(((5-(2,6-dioxopiperidin-3-yl)pyridin-2-yl)methyl)(methyl)amino)piperidin-1-yl)phenyl)-4-fluoro-1-oxoisoindolin-2-yl)-N-(thiazol-2-yl)acetamide]"
6,1 to 10 nM,"O=C1CCC(c2ccc(CN3CCN(c4ccc(-c5cc(F)c6c(c5)C(=O)N(C(C(=O)Nc5nccs5)c5ncn7c5CCC7)C6)cc4)CC3)nc2)C(=O)N1 (stereo not drawn) [GT-07381, 2-(6,7-dihydro-5H-pyrrolo[1,2-c]imidazol-1-yl)-2-(6-(4-(4-((5-(2,6-dioxopiperidin-3-yl)pyridin-2-yl)methyl)piperazin-1-yl)phenyl)-4-fluoro-1-oxoisoindolin-2-yl)-N-(thiazol-2-yl)acetamide]"
7,1 to 10 nM,"O=C1CCN(c2ccc(CN3CCC(N4CCN(c5ccc(-c6cc(F)c7c(c6)C(=O)N(C(C(=O)Nc6nccs6)c6ncn8c6CCC8)C7)cc5)CC4)CC3)cc2)C(=O)N1 (stereo not drawn) [GT-06327, 2-(6,7-dihydro-5H-pyrrolo[1,2-c]imidazol-1-yl)-2-(6-(4-(4-(1-(4-(2,4-dioxotetrahydropyrimidin-1(2H)-yl)benzyl)piperidin-4-yl)piperazin-1-yl)phenyl)-4-fluoro-1-oxoisoindolin-2-yl)-N-(thiazol-2-yl)acetamide]"
8,10 to 50 nM,"O=C1CCC(c2cnc(F)c(CN3C[C@H]4C[C@@H]3CN4c3ccc(-c4cc(F)c5c(c4)C(=O)N(C(C(=O)Nc4nccs4)c4ncn6c4CCC6)C5)cc3)c2)C(=O)N1 (stereo partly drawn) [GT-07562, 2-(6,7-dihydro-5H-pyrrolo[1,2-c]imidazol-1-yl)-2-(6-(4-((1R,4R)-5-((5-(2,6-dioxopiperidin-3-yl)-2-fluoropyridin-3-yl)methyl)-2,5-diazabicyclo[2.2.1]heptan-2-yl)phenyl)-4-fluoro-1-oxoisoindolin-2-yl)-N-(thiazol-2-yl)acetamide]"
9,1 to 10 nM,"CN(Cc1ccc(N2CCC(=O)NC2=O)cc1)C1CCN(c2ccc(-c3cc(F)c4c(c3)C(=O)N(C(C(=O)Nc3nccs3)c3ncn5c3CCC5)C4)cc2)CC1 (stereo not drawn) [GT-05219, 2-(6,7-dihydro-5H-pyrrolo[1,2-c]imidazol-1-yl)-2-(6-(4-(4-((4-(2,4-dioxotetrahydropyrimidin-1(2H)-yl)benzyl)(methyl)amino)piperidin-1-yl)phenyl)-4-fluoro-1-oxoisoindolin-2-yl)-N-(thiazol-2-yl)acetamide]"
10,1 to 10 nM,"CN(Cc1ccc(N2CCC(=O)NC2=O)cn1)C1CCN(c2ccc(-c3cc(F)c4c(c3)C(=O)N(C(C(=O)Nc3nccs3)c3ncn5c3CCC5)C4)cc2)CC1 (stereo not drawn) [GT-05282, 2-(6,7-dihydro-5H-pyrrolo[1,2-c]imidazol-1-yl)-2-(6-(4-(4-(((5-(2,4-dioxotetrahydropyrimidin-1(2H)-yl)pyridin-2-yl)methyl)(methyl)amino)piperidin-1-yl)phenyl)-4-fluoro-1-oxoisoindolin-2-yl)-N-(thiazol-2-yl)acetamide]"
11,1 to 10 nM,"O=C1CCC(c2cc(CN3CCN(c4ccc(-c5cc(F)c6c(c5)C(=O)N(C(C(=O)Nc5nccs5)c5ncn7c5CCC7)C6)cc4)CC3)ccn2)C(=O)N1 (stereo not drawn) [GT-07392, 2-(6,7-dihydro-5H-pyrrolo[1,2-c]imidazol-1-yl)-2-(6-(4-(4-((2-(2,6-dioxopiperidin-3-yl)pyridin-4-yl)methyl)piperazin-1-yl)phenyl)-4-fluoro-1-oxoisoindolin-2-yl)-N-(thiazol-2-yl)acetamide]"
12,1 to 10 nM,"CN(Cc1cncc(N2CCC(=O)NC2=O)c1)C1CCN(c2ccc(-c3cc(F)c4c(c3)C(=O)N(C(C(=O)Nc3nccs3)c3ncn5c3CCC5)C4)cc2)CC1 (stereo not drawn) [GT-07384, 2-(6,7-dihydro-5H-pyrrolo[1,2-c]imidazol-1-yl)-2-(6-(4-(4-(((5-(2,4-dioxotetrahydropyrimidin-1(2H)-yl)pyridin-3-yl)methyl)(methyl)amino)piperidin-1-yl)phenyl)-4-fluoro-1-oxoisoindolin-2-yl)-N-(thiazol-2-yl)acetamide]"
13,1 to 10 nM,"O=C1CCN(c2cc(CN3CCN(c4ccc(-c5cc(F)c6c(c5)C(=O)N(C(C(=O)Nc5nccs5)c5ncn7c5CCC7)C6)cc4)CC3)c(F)cn2)C(=O)N1 (stereo not drawn) [GT-07378, 2-(6,7-dihydro-5H-pyrrolo[1,2-c]imidazol-1-yl)-2-(6-(4-(4-((2-(2,4-dioxotetrahydropyrimidin-1(2H)-yl)-5-fluoropyridin-4-yl)methyl)piperazin-1-yl)phenyl)-4-fluoro-1-oxoisoindolin-2-yl)-N-(thiazol-2-yl)acetamide]"
14,1 to 10 nM,"O=C1CCN(c2cc(CN3C[C@H]4C[C@@H]3CN4c3ccc(-c4cc(F)c5c(c4)C(=O)N(C(C(=O)Nc4nccs4)c4ncn6c4CCC6)C5)cc3)ccn2)C(=O)N1 (stereo partly drawn) [GT-07387, 2-(6,7-dihydro-5H-pyrrolo[1,2-c]imidazol-1-yl)-2-(6-(4-((1R,4R)-5-((2-(2,4-dioxotetrahydropyrimidin-1(2H)-yl)pyridin-4-yl)methyl)-2,5-diazabicyclo[2.2.1]heptan-2-yl)phenyl)-4-fluoro-1-oxoisoindolin-2-yl)-N-(thiazol-2-yl)acetamide]"

row,Structure (SMILES),IC50
1,"O=C1CCC(c2ccc(CN3C4CCC3CN(c3ccc(-c5cc(F)c6c(c5)C(=O)N(C(C(=O)Nc5nccs5)c5ncn7c5CCC7)C6)cc3)C4)cc2)C(=O)N1 (stereo not drawn) [GT-06252, 2-(6,7-dihydro-5H-pyrrolo[1,2-c]imidazol-1-yl)-2-(6-(4-(8-(4-(2,6-dioxopiperidin-3-yl)benzyl)-3,8-diazabicyclo[3.2.1]octan-3-yl)phenyl)-4-fluoro-1-oxoisoindolin-2-yl)-N-(thiazol-2-yl)acetamide]",1 to 10 nM

# — EP4678638A1, “NEW E3 UBIQUITIN LIGASE LIGAND, PROTEIN DEGRADATION AGENT AND USE THEREOF” (priority 2023, dated 2024)
